Laboratory results reported in US8802726B2, “Use of nitrooxyderivative of drug for the treatment of muscular dystrophies” (Nicox S.A., priority 2006, dated 2014).
Marks after values point to notes of the source that are not given here.

How the values were obtained:
[1] = tested on: α-sarcoglycan (SG)-null C57BL/6 mice; assay: Histology of diaphragm and tibialis anterior (inflammatory infiltrates, necrotic fibres), muscular dystrophy model; format: in vivo; details: for Overall effect on histological, functional and biochemical alterations (in words): α-SG-null mice, 20 to 80 days, summary of tables 1 and 2
Method: (§1) Muscular Dystrophy Model (α-Sarcoglycan-Deficient Mice)
(§2) • 2-acetyloxy benzoic acid 3-(nitrooxymethyl)benzoate of formula (Ib); • pravastatin 4-(nitrooxy)butyl ester which of formula (XXXVb); • 2-fluoro-alfa-methyl-4[1,1′-biphenyl]4-acetic acid 4-nitrooxybutyl ester of formula (IIIb); • prednisolone as reference corticosteroid drug. […] At indicated time-points (ranging from 20 to 80 days) skeletal muscle function was tested by the free wheel test. 24 hours later animals were sacrificed, tissue isolated and histological characteristics analysed. Infiltrates were assessed after staining with the Azan Mallory technique; Necrotic fibres were measured in hematoxilin-stained sections; creatin kinase was measured using a commercially available kit on blood samples obtained 24 hours prior to the wheel test. […] Free Wheel Running: Voluntary wheel running was used as the exercise paradigm to avoid any physiological changes that may occur due to the stress of forced treadmill running. Mice were housed singly for a 24 hour period in a polycarbonate running wheel equipped with a magnetic counter, the output of which was sent to a speedometer, allowing quantification of the number of revolutions per day. Creatine Kinase Activity Measurements: quantitative and kinetic determination of creatine kinase activity in serum of control and drug treated-animals was measured using creatine kinase reagent (Sigma), according to the manufacturer's instructions. Blood was collected from tail of 2-7 months-old mice and serum obtained after centrifugation at 13.000 rpm for 10 minutes was stored at −80° C. before measurements. Histology: Diaphragm and tibialis anterior of untreated and drug-treated mice were isolated and included in Killik frozen section medium, quickly frozen and cut into 8-μm thick sections with the muscle fibres oriented transversely using a cryostat. Sections were stained with either Hematoxylin & Eosin or Azan Mallory, to evaluate the number of inflammatory infiltrates and necrotic fibres ([…] for tissue).

[2] = tested on: α-sarcoglycan (SG)-null C57BL/6 mice; assay: Free wheel running test (voluntary wheel running), muscular dystrophy model; format: in vivo; details: daily in the diet
Method: as §1, §2

[3] = tested on: α-sarcoglycan (SG)-null C57BL/6 mice; assay: Creatine kinase activity measurements in serum, muscular dystrophy model; format: in vivo; details: daily in the diet, Ib 100, XXXVb 12, IIIb 30, prednisolone 3 mg/kg
Method: as §1, §2

[4] = tested on: α-SG-null mice; assay: In vivo functional test: resistance to fatigue (exhaustion) by treadmill; details: for Extent of the benefit (%) on exhaustion time, treated vs untreated mice: in the diet
Method: The effectiveness of naproxcinod, isosorbide dinitrate (ISD) alone and in combination with ibuprofen, molsidomine and prednisolone were evaluated using a test of functional recovery in a mouse model of muscular dystrophy (α-SG-null mice). The experiments to assess the functional recovery in α-SG-null mice were performed according to the following experimental protocol. All experiments and functional evaluations were performed by the same operator in the same laboratory.
α-SG-null mice were housed in a pathogen-free facility, treated in accordance with the European Community Guidelines and with the approval of the Institutional Ethical Committee. Mice were given the following treatments: 3 mg/kg of molsidomine, 30 mg/kg of naproxcinod, 30 mg/kg of ISD alone and in combination with 50 mg/kg of ibuprofen, or 2 mg/kg of prednisolone incorporated in the diet. Control groups received the same diet without any drugs. Standard diet and diets containing the drugs were prepared based on the daily food intake of 3 g. Mice were treated starting at 1 month of age.
Analyses were carried out using a six-lane motorized treadmill (Exeter 3/6 treadmill, Columbus Instruments, OH, USA) supplied with shocker plates. The initial trials were performed at low intensity and for a short duration of time to get mice accustomed to the exercise; the treadmill was then run without inclination at 5 m/min for 5 min, after which the speed was increased 1 m/min every 3 min until a speed of 10 m/min was reached. The test was stopped when the mouse remained on the shocker for 20 sec without attempting to reengage the treadmill.
The extent of benefit (%) is expressed as the percent of the improvement of treated mice (diet containing the drug) compared to untreated mice (standard diet) on the exhaustion time.

[5] = 80 days of treatment, daily in the diet, Ib 100 mg/kg, XXXVb 12 mg/kg, IIIb 30 mg/kg, prednisolone 3 mg/kg
[6] = 80 days of treatment, daily in the diet, Ib 100 mg/kg, XXXVb 12 mg/kg, IIIb 30 mg/kg, prednisolone 3 mg/kg, Azan Mallory staining
[7] = 20 days of treatment, Ib 100, XXXVb 12, IIIb 30, prednisolone 3 mg/kg
[8] = 40 days of treatment, Ib 100, XXXVb 12 mg/kg
[9] = 60 days of treatment, Ib 100, XXXVb 12 mg/kg

| Structure (SMILES) | N° of necrotic Fibres/section [1, 5] | N° of inflammatory Infiltrates/section [1, 6] | Overall effect on histological, functional and biochemical alterations (in words) ([1]; daily in the diet) | Free wheel test [2, 7] | Free wheel test [2, 8] | Free wheel test [2, 9] | Free wheel test ([2]; 80 days of treatment, XXXVb 12 mg/kg) | CK plasma level ([3]; 20 days of treatment) | CK plasma level ([3]; 40 days of treatment) | CK plasma level ([3]; 60 days of treatment) | CK plasma level ([3]; 80 days of treatment) | N° of inflammatory Infiltrates/section ([1]; mouse, in vivo) | N° of necrotic Fibres/section ([1]; mouse, in vivo) | Extent of the benefit (%) on exhaustion time, treated vs untreated mice ([4]; 6 months of treatment, prednisolone 2 mg/kg) | Extent of the benefit (%) on exhaustion time, treated vs untreated mice ([4]; 12 months of treatment, prednisolone 2 mg/kg) | Extent of the benefit (%) on exhaustion time, treated vs untreated mice ([4]; 8 months of treatment, molsidomine 3 mg/kg, ISD 30 mg/kg, ibuprofen 50 mg/kg) | Extent of the benefit (%) on exhaustion time, treated vs untreated mice ([4]; 4 months of treatment, naproxcinod 30 mg/kg, ISD 30 mg/kg, ibuprofen 50 mg/kg) | Amelioration of muscle function (in words) ([4]; compared to molsidomine, ISD alone, ISD and ibuprofen, or prednisolone) |
| --- | --- | --- | --- | --- | --- | --- | --- | --- | --- | --- | --- | --- | --- | --- | --- | --- | --- | --- |
| CC[C@H](C)C(=O)O[C@H]1C[C@H](O)C=C2C=C[C@H](C)[C@H](CCC(O)C[C@H](O)CC(=O)OCCCCO[N+](=O)[O-])[C@H]21 (relative stereo) [(XXXVb), [1S-[1α(βS*,δS*),2α,6α,8β-(R*),8aα]]-1,2,6,7,8,8a-hexahydro-β,δ,6-trihydroxy-2-methyl-8-(2-methyl-1-oxobutoxy)-1-naphthaleneheptanoic acid 4-(nitrooxy)butyl ester] | 35 ± 2.1 | 54.2 ± 8.05 | significantly effective in reducing the histological, functional and biochemical alterations | 0.55 ± 0.03 km/24 h | 0.58 ± 0.01 km/24 h | 0.54 ± 0.03 km/24 h | 0.65 ± 0.05 km/24 h | 440.6 ± 33**^ U/ml | 488.2 ± 96.5 U/ml | 627.4 ± 69.3 U/ml | 614.8 ± 37**^ U/ml |  |  |  |  |  |  |  |
| CC(C(=O)OCCCCO[N+](=O)[O-])c1ccc(-c2ccccc2)c(F)c1 (centres unmarked) [(IIIb), 2-fluoro-alfa-methyl-4[1,1′-biphenyl]4-acetic acid 4-nitrooxybutyl ester] |  |  | significantly effective in reducing the histological, functional and biochemical alterations | 0.95 ± 0.1 km/24 h |  |  |  | 662.6 ± 41 U/ml | 824.0 ± 90.5 U/ml | 648.2 ± 25.2 U/ml | 482.3 ± 51.2 U/ml | 84.2 ± 22.5 | 48.4 ± 2.3 |  |  |  |  |  |
| CC(=O)Oc1ccccc1C(=O)Oc1cccc(CO[N+](=O)[O-])c1 [(Ib), 2-(acetyloxy)benzoic acid 3-(nitrooxymethyl)phenyl ester] | 124.1 ± 33 | 91.3 ± 34.5 | significantly effective in reducing the histological, functional and biochemical alterations | 0.65 ± 0.07 km/24 h | 0.42 ± 0.08 km/24 h | 0.31 ± 0.1 km/24 h |  | 665.6 ± 51 U/ml | 944.0 ± 95.5 U/ml | 444.2 ± 20.2 U/ml | 494.6 ± 56.1 U/ml |  |  |  |  |  |  |  |
| C[C@]12C=CC(=O)C=C1CC[C@@H]1[C@@H]2[C@@H](O)C[C@@]2(C)[C@H]1CC[C@]2(O)C(=O)CO [Prednisolone, prednisolone, reference compound] | 197.1 ± 23 | 59.4 ± 7.00 |  | 0.55 ± 0.1 km/24 h |  |  |  | 440.6 ± 33**^ U/ml | 488.2 ± 96.5 U/ml | 711.3 ± 69.3 U/ml | 717.6 ± 31.1 U/ml |  |  | 117% | 100% |  |  |  |
| CCOC(=O)[N-]c1cn(N2CCOCC2)n[o+]1 [molsidomine] |  |  |  |  |  |  |  |  |  |  |  |  |  |  |  | 63% |  |  |
| COc1ccc2cc([C@H](C)C(=O)OCCCCO[N+](=O)[O-])ccc2c1 [naproxcinod] |  |  |  |  |  |  |  |  |  |  |  |  |  |  |  |  | 150% | superior amelioration of the muscle function |
